Results published in patent US10352947B2, “Use of markers in the identification of cardiotoxic agents and in the diagnosis and monitoring of cardiomyopathy and cardiovascular disease” (Berg LLC, priority 2012, dated 2019).
Where two headings read alike, the source gives them in different places.

Columns and labels:
CCDC47 = system: CCDC47
Description: Human serum samples from individuals with type 2 diabetes mellitus (T2D) and/or cardiomyopathy treated with various drugs and appropriate control subjects (n=120 total) were acquired from a commercial source. The characteristics of the group was as follows:
The level of the cardiomyopathy protein biomarker CCDC47 were measured in the serum samples from the T2DM individuals and drug treated T2DM individuals using commercially available ELISA kits. The assays were performed using the manufactures' instructions. An ROC analysis was performed to determine if serum CCDC47 levels correlated with cardiomyopathy.

NucB1 = assay: Serum NucB1 ELISA in normal, T2DM, Rosiglitazone-treated T2DM and cardiomyopathy individuals; type: in vivo, human; conditions: some Rosiglitazone-treated T2DM individuals vs. the other Rosiglitazone-treated T2DM individuals; FIG. 8
Description: (§1) The level of protein expression of cardiotoxicity biomarkers EDIL3 and NucB1 in the serum samples from these four groups of individuals were measured by using commercially available ELISA kits.
(§2) The expression levels of the cardiotoxicity biomarkers EDIL3 and NucB1 were determined and the average expression of each biomarker for each group of individuals was calculated.

EDIL3 = assay: Serum EDIL3 ELISA in normal, T2DM, Rosiglitazone-treated T2DM and cardiomyopathy individuals; type: in vivo, human; conditions: some Rosiglitazone-treated T2DM individuals vs. the other Rosiglitazone-treated T2DM individuals; FIG. 7
Description: as §1, §2

serum lipids = assay: Serum lipidomics of patients (diabetes / rosiglitazone / cardiomyopathy groups); type: in vivo, human
Excerpt: The platform methods provided herein enables integration of multi-omic signatures from human drug induced organ toxicity models. A substantive example of the platforms prowess that is under consideration here is a human drug induced cardio toxicity scenario. Human drug induced cardio toxicity models that comprises of i) Human cardiomyocyte based in vitro models of cardiotoxicity and ii) Serum samples from patients on a drug that induces cardiotoxicity. In vitro models include human cardio myocyte pretreated with fatty acids (linoleic, oleic acids and L-Carnitine) followed by treatment with a drug. The drug under consideration here is a thiazolidinedione. Cell based assays specifically measuring functional end points namely mitochondrial ATP, ROS, cell viability and mitochondrial bioenergetics were performed on in vitro models.
Proteomics was performed using the LTQ Orbitrap from Thermo Scientific as mentioned in earlier reports. Shortgun Lipidomics was performed using the TSQ vantage EMR triple Quad mass spec from thermo.
Standard procedures for merging, normalization and imputation were followed. Quality control plots for these steps are included in the accompanying folder.
Quantification of lipids that are common to serum lipid networks and pellet lipid networks. […] Lipid levels are expressed as a percent of normal lipid levels in FIG. 10B. […]

Structure (SMILES) | level of CCDC47 in serum (CCDC47; human, in vivo) | NucB1 expression level in serum (NucB1) | EDIL3 expression level in serum (EDIL3) | serum level of lipid PE D18:0-20:3/D18:1-20:2/D16:0-22:3 (serum lipids; diabetic subjects on rosiglitazone with clinical diagnosis of cardiomyopathy vs. diabetic alone and diabetics on rosiglitazone without cardiomyopathy, FIG. 10) | serum ethanolamine glycerophospholipid species P16:0-20:4, D18:0-18:2, P16:0-22:6, P18:0-20:4 and D18:0-20:4 (serum lipids; diabetic vs. diabetic rosiglitazone no cardiomyopathy vs. diabetic rosiglitazone cardiomyopathy) | level of CCDC47 in serum (CCDC47; subjects treated with the drug vs. subjects treated with the other two drugs (rosiglitazone, metformin, atorvastatin), ELISA, FIG. 13)
CC(C)c1c(C(=O)Nc2ccccc2)c(-c2ccccc2)c(-c2ccc(F)cc2)n1CC[C@@H](O)C[C@@H](O)CC(=O)O [atorvastatin] | No significant difference | – | – | – | – | –
CN(C)C(=N)N=C(N)N [metformin] | No significant difference | – | – | – | – | –
CN(CCOc1ccc(CC2SC(=O)NC2=O)cc1)c1ccccn1 (stereo not shown) [rosiglitazone] | – | decreased | decreased | significantly reduced | stratified along with the treatment with rosiglitazone | significant increase
